Reference: US10934258B2, “Materials for use in an aqueous organic redox flow battery” (Utah State University, priority 2016, dated 2021)
≈ marks a conversion by molar mass, not a printed value. Where “and” joins values, the source holds several entries; their conditions need not be identical. Equal entries are not always repeated.

Tests used:
[1] = RDE linear sweep voltammetry with Levich and Tafel analysis; format: physicochemical; details: 1.0 mM in 0.5 M NaCl
Description: Electrochemical RDE studies: All linear sweep voltammetry (LSV) studies were conducted using a Gamry 1000E potentiostat in a three-electrode configuration, a glassy carbon disk working electrode (5 mm Teflon encased glassy carbon disk, Pine Research Instrumentation) along with a glassy carbon counter electrode and a Ag/AgCl reference electrode same as used in CV studies. Before data collection, the disk electrode was prepared using the procedure described in the CV studies. The electrode was then rotated at from 300 to 2400 rpm with an increment of 300 rpm, which was controlled by a Pine MSR rotator system. LSV scans were recorded at a rate of 5 mV/s from 0.3 V to 0.8 V vs NHE. At each rotation rate, the LSV were recorded 3 times to ensure repeatability. The limiting currents (i.e. the mass transport-limited current intensity) were taken at 0.7 V vs NHE for FcNCl and plotted over the square root of the rotation rate (rad/s). The data were fitted to yield a straight Levich plot, with the slope defined by the Levich equation (equation 1 below), where n=1 for one electron process, Faraday's constant F=96485 C/mol, electrode area A=0.1935 cm^2, FcNCl concentration Co=1.0 mM, D is diffusion coefficient, kinematic viscosity n=0.009 cm^2/s for 0.5 M NaCl solution. The calculations yielded the diffusion coefficients of FcNCl as 3.25×10^−6 cm^2/s. A plot of overpotential versus log10(iK) was constructed for the LSV data collected at […] for FcNCl where iK is the kinetic current for the oxidation of FcNCl. […] Levich plot slope=0.620nFACOD^2/3v^−1/6 (equation 1) i0=FACOk0 (equation 2)
Electrochemical RDE studies: Linear sweep voltammetry (LSV) experiments were conducted using a Gamry 1000E potentiostat with a three-electrode system. A 5 mm rotating glassy carbon disk encased in Teflon served as the working electrode. A glassy carbon rod was used as the counter electrode. A Ag/AgCl wire served as the reference electrode. The working electrode was cleaned using the same method as in the CV experiments. During the experiments, the working electrode rotated from 300 rpm to 2400 rpm at increments of 300 rpm. Three scans at each rotation rate were collected to ensure accuracy. (NPr)2V: LSV scans were conducted at a rate of 5 mV/s from 0.1 V to −1.2 V versus NHE. The limiting currents (mass transport-limited current intensity) at each rotation rate were recorded at −0.57 V and −0.95 V versus NHE. […] The slopes of these fitted lines are defined by the Levich equation, Levich Plot Slope=0.620nFAC0D^2/3v^−1/6 (equation 1)
[…] Plots of overpotential versus log10(ik) were constructed from the 2400 rpm LSV, where ik is the kinetic current of each reduction of (NPr)2V. The x-intercept of the fitted Tafel plot represents the log of the exchange current i0 that is defined by: i0=FAC0k^0 (equation 2)
where F, A, and C0 are defined above, and k^0 represents the electron transfer rate constant.
(NPr)(SPr)V, (Me)(NPr)V, (SPr)2V, and [FcN^Et]Br: LSV scans were collected and analyzed using the same techniques described for (NPr)2V.

[2] = Solubility by preparing a super-saturated solution; details: for solubility: thermodynamic from solid
Description: Chemicals and Materials. All chemicals were purchased from Aldrich or TCI, stored in an Argon glovebox, and used directly. Solubility of substituted ferrocene compounds was measured in water by preparing a super-saturated solution in a volumetric cylinder. Deionized water was purged overnight using N2 before use. All experimental operations were conducted under a N2 atmosphere. Conductivity of the electrolyte solutions was measured using a Mettler Toledo conductivity meter at R.T. NMR studies were conducted using a Bruker 500 MHz NMR spectrometer. UV-Vis was collected using an Ocean Optic spectrometer. Elemental analysis was done at Atlantic Microlab.
Calculation of theoretical energy density: The theoretical energy density of the FcNCl/MV AORFB was calculated using equation 3 below, where n is the number of electrons involved into the cell reaction, C is the concentration of active materials, F is Faraday constant, 26.8 Ah/mol, V is the cell voltage, and 2 represents a factor considering both volumes of anolyte and catholyte. Solubility of FcNCl and MV was measured in water respectively by preparing a super-saturated solution. Similar solubility tests in water were applied for ferrocenecarboxylic acid, 1-1′-ferrocenedicarboxilic acid, ferrocenecarboxylic acid, and 1,1′-ferrocenedimethanol. Energy density (Wh/L)=nCFV/2 (equation 3)

[3] = Cyclic and square wave voltammetry (redox potentials); format: physicochemical; details: for Exp. E1/2, first reduction: first redox couple; for Exp. E1/2, first reduction / Exp. E1/2, second reduction / redox potential (redox wave in cyclic voltammogram): 4 mM in 0.5 M NaCl; for Exp. E1/2, second reduction: second redox couple; for redox / reversible oxidation potential of catholyte: electrolyte not stated
Description: Electrochemical Cyclic voltammetry (CV) studies. All electrochemical CV experiments were carried out in 0.5 M NaCl electrolyte solutions. Cyclic voltammetry experiments were performed with a Gamry 1000E potentiostat. All potentials were referenced to NHE according to the known MV^2+/1+ redox couple (−0.45 V vs NHE). The working electrode (1 mm PEEK-encased glassy carbon, Cypress Systems EE040) was polished using Al2O3(BAS CF-1050, dried at 150° C. under vacuum) suspended in deionized H2O, then rinsed with deionized H2O and dried with an air flow. The reference electrode was a silver wire coated with a layer of AgCl and suspended in a solution of 0.5 M NaCl electrolyte. A glassy carbon rod (Structure Probe, Inc.) was used as the counter electrode.
Cyclic and square wave voltammetry studies: All experiments were conducted in an […], 0.5 M NaCl aqueous solution, and performed with a Gamry 1000E potentiostat. A 1 mm PEEK encased glassy carbon disk was used as the working electrode. The working electrode was polished with 0.05 micron Al2O3 powder and rinsed with deionized H2O. A glassy carbon rod was used as the counter electrode. A silver wire coated with AgCl and suspended in 3.0 M KCl electrolyte was used as the reference electrode.
The redox potentials were calculated directly versus MV which was derived from the Born-Haber method. This calculation predicts the redox potential of the viologen by comparing it to the experimentally determined potentials for MV. Square wave voltammetry was employed to most accurately measure E1/2 for the two reductions of viologen compounds (FIG. 42). The calculation of the theoretical redox potential vs MV can be simplified as shown below: […]

[4] = Conductivity of the electrolyte solutions; format: physicochemical; parameters: electrolyte conductivity: unit not given here
Description: Chemicals and Materials. […] Deionized water was purged overnight using N2 before use. All experimental operations were conducted under a N2 atmosphere. […] UV-Vis was collected using an Ocean Optic spectrometer. Elemental analysis was done at Atlantic Microlab.

[5] = known value, potential reference; cited from earlier work

Compound | diffusion constant, D, first reduction ([1]; Levich) | electron transfer rate constant, k^0, first reduction ([1]; Tafel) | solubility in water, [C] [2] | Exp. E1/2, first reduction [3] | Exp. E1/2, second reduction [3] | solubility ([2]; water) | redox potential (redox wave in cyclic voltammogram) [3] | also measured
C[N+](C)(C)CCC[n+]1ccc(-c2cc[n+](CCC[N+](C)(C)C)cc2)cc1.[Br-].[Br-].[Br-].[Br-] [(NPr)2V, 1,1′-bis[3-(trimethylamonium)propyl]-4,4′-bipyridinium, tetrabromide] | 3.88×10^−6 cm^2/s | 4.32e-06 cm/s and 4.32e-05 cm/s | 1600 mM | −0.35 V vs. NHE | −0.72 V vs. NHE | – | – | diffusion constant, D, second reduction ([1]; Levich): 3.84×10^−6 cm^2/s; electron transfer rate constant, k^0, second reduction ([1]; Tafel): 2.46e-06 cm/s and 2.46e-05 cm/s; solubility in H2O [2]: 1600 mM; effective redox potential (average of the two reductions) ([3]; average of −0.35 and −0.72 V): −0.54 V
C[N+](C)(C)C[c-]1cccc1.[Cl-].[Fe+2].c1cc[cH-]c1 [FcNCl, (ferrocenylmethyl)trimethylammonium chloride] | – | – | – | – | – | ~4000 mM | 0.60 V vs NHE | electrolyte conductivity ([4]; 0.5 M in 2.0 M NaCl): 135; diffusion coefficient (oxidation) ([1]; Levich): 3.25×10^−6 cm^2/s and 3.74×10^−6 cm^2/s; electron transfer rate constant k0 (oxidation) ([1]; Tafel): 2.29e-05 cm/s and 3.66e-05 cm/s; exchange current i0 ([1]; Tafel X-intercept): 0.7 μA
C[n+]1ccc(-c2cc[n+](C)cc2)cc1 [MV, methyl viologen, reference compound] | 2.57 × 10^−5 cm^2/s | 0.00028 cm/s | 2500 mM | −0.45 V vs. NHE | −0.76 V vs. NHE | – | – | MV^2+/1+ redox couple used as reference [5]: −0.45 V vs NHE; solubility in 2.0 M NaCl solution ([2]; 2.0 M NaCl solution): above 2.0 M
CC(C[N+](C)(C)C[c-]1cccc1)[N+](C)(C)C.[Br-].[Br-].[Fe+2].c1cc[cH-]c1 (centres unmarked) [FcN2, N^1-ferrocenylmethyl-N^1, N^1, N^2, N^2, N^2-pentamethylpropane-1,2-diaminium dibromide] | – | – | – | – | – | – | 0.62 V vs NHE | –
C[N+](C)(C)CCC[c-]1cccc1.[Cl-].[Fe+2].c1cc[cH-]c1 [prop-FcNCl, (ferrocenylpropyl)trimethylammonium chloride] | – | – | – | – | – | ~2200 mM | – | –
O=S(=O)([O-])CCC[n+]1ccc(-c2cc[n+](CCCS(=O)(=O)[O-])cc2)cc1 [(SPr)2V, 1,1′-bis[3-sulfonatopropyl]-4,4′-bipyridinium] | 3.26×10^−6 cm^2/s | 1.49e-05 cm/s | 2000 mM (≈ 801 mg/mL) | −0.43 V vs. NHE | −0.79 V vs. NHE | 2000 mM (≈ 801 mg/mL) | – | conductivity ([4]; 0.6 M in 1.5 M KCl): 103.2 mS/cm; diffusion constant, D, second reduction ([1]; Levich): 2.81 × 10^−6 cm^2/s; electron transfer rate constant, k^0, second reduction ([1]; Tafel): 3.96e-05 cm/s; solubility ([2]; saline or isotonic): 1700 mM (≈ 681 mg/mL)
disodium (ferrocenyl)sulfurtrioxide [FcS] | – | – | – | – | – | – | ~0.77 V vs NHE and 1.0 V vs NHE | –
[I-].[K+] [KI, reference compound] | – | – | – | – | – | – | – | redox / reversible oxidation potential of catholyte [3]: 0.65 V vs NHE
[Br-].[Br-].[Zn+2] [ZnBr2, reference compound] | – | – | – | – | – | – | −1.2 V vs NHE | –
CC1(C)CC([N+](C)(C)CCC[N+](C)(C)C)CC(C)(C)N1O [4-N^NPr-TEMPO, N^1, N^1, N^1, N^3, N^3,2,2,6,6-nonamethyl-N^3-(piperidinyloxy)propane-1,3-bis(ammonium) dichloride] | – | – | – | – | – | 2300 mM | – | redox / reversible oxidation potential of catholyte [3]: 1.06 V vs NHE
CC[N+](C)(C)C[c-]1cccc1.[Br-].[Fe+2].c1cc[cH-]c1 [[FcN^Et]Br, (ferrocenylmethyl)ethyldimethylammonium bromide] | – | – | – | – | – | 3750 mM | 0.60 V vs NHE | –
C[n+]1ccc(-c2cc[n+](CCC[N+](C)(C)C)cc2)cc1.[Cl-].[Cl-].[Cl-] [(Me)(NPr)V, 1′-methyl-4′-pyridinium-1-[3-(trimethylaminium)propyl]-4-pyridinium trichloride] | 5.40 × 10^−6 cm^2/s | 2.39e-05 cm/s | 1800 mM | −0.39 V vs. NHE | −0.78 V vs. NHE | – | – | diffusion constant, D, second reduction ([1]; Levich): 5.29 × 10^−6 cm^2/s; electron transfer rate constant, k^0, second reduction ([1]; Tafel): 1.84e-05 cm/s; solubility in H2O [2]: 1800 mM
C[N+](C)(C)CCC[n+]1ccc(-c2cc[n+](CCCS(=O)(=O)[O-])cc2)cc1.[Br-].[Br-] [(NPr)(SPr)V, 1′-[3-(trimethylammonium)propyl]-4′-pyridinium-1-[3-sulfonatopropyl]-4-pyridinium dibromide] | 4.96 × 10^−6 cm^2/s | 3.5e-05 cm/s | 1600 mM | −0.37 V vs. NHE | −0.74 V vs. NHE | – | – | diffusion constant, D, second reduction ([1]; Levich): 5.04 × 10^−6 cm^2/s; electron transfer rate constant, k^0, second reduction ([1]; Tafel): 2.09e-05 cm/s; solubility in H2O [2]: 1600 mM
CC1(C)CC([N+](C)(C)C)CC(C)(C)N1[O].[Cl-] [4-N^Me-TEMPO, N, N, N, 2,2,6,6-Heptamethylpiperidinyloxy-4-ammonium chloride] | – | – | – | – | – | – | – | solubility in H2O [2]: 2500 mM; redox / reversible oxidation potential of catholyte [3]: 1.06 V vs NHE
